Data taken from ChEMBL document CHEMBL3232809, “Synthesis, antibiotic activity and structure-activity relationship study of some 3-enaminetetramic acids” (2014).

Experiments:
Format in all cases: functional
[1] = test system: Haemophilus influenzae; test: Antimicrobial activity against LS2 Efflux knock-out Haemophilus influenzae
[2] = test system: Streptococcus pneumoniae; test: Antimicrobial activity against penicillin- and erythromycin-resistant Streptococcus pneumoniae
[3] = test system: Escherichia coli; test: Antimicrobial activity against Escherichia coli ATCC 25922
[4] = test system: Staphylococcus aureus; test: Antimicrobial activity against methicillin-sensitive Staphylococcus aureus ATCC 13709
[5] = test system: Enterococcus faecalis; test: Antimicrobial activity against vancomycin-susceptible Enterococcus faecalis ATCC 29212
[6] = test system: Haemophilus influenzae; test: Antimicrobial activity against Haemophilus influenzae ATCC 31517 MMSA
[7] = test system: Staphylococcus aureus; test: Antimicrobial activity against vancomycin-susceptible Staphylococcus aureus ATCC 25923
[8] = test system: Enterococcus faecium; test: Antimicrobial activity against vancomycin-resistant Enterococcus faecium
[9] = test system: Streptococcus pneumoniae; test: Antimicrobial activity against erythromycin-susceptible Streptococcus pneumoniae ATCC 49619
[10] = test system: Staphylococcus aureus; test: Antimicrobial activity against methicillin-resistant Staphylococcus aureus
[11] = test system: Pseudomonas aeruginosa; test: Antimicrobial activity against Pseudomonas aeruginosa ATCC 27853
[12] = test system: Streptococcus pneumoniae; test: Antimicrobial activity against penicillin- and erythromycin-resistant Streptococcus pneumoniae in presence of 2.5% horse blood
[13] = test system: Escherichia coli; test: Antimicrobial activity against Escherichia coli 49
[14] = test system: Staphylococcus aureus; test: Antimicrobial activity against Staphylococcus aureus Oxford
[15] = test system: Escherichia coli; test: Antimicrobial activity against Escherichia coli 50

Measured: MIC

C/C(NCCOc1ccccc1)=C1/C(=O)[C@@H]2CO[C@@H](C(C)(C)C)N2C1=O
> 32 µg/mL: all assays above

C/C(NCCOc1ccccc1)=C1/C(=O)[C@@H]2CCCC(=O)N2C1=O
> 32 µg/mL: all assays above

C/C(NCCOc1ccccc1Cl)=C1/C(=O)[C@@H]2CCCC(=O)N2C1=O
> 32 µg/mL: all assays above

C/C(NCCOc1ccccc1Cl)=C1/C(=O)CNC1=O
> 32 µg/mL: all assays above

COC(=O)[C@@]12CO[C@@H](C(C)(C)C)N1C(=O)/C(=C(\C)Nc1ccccc1)C2=O
> 32 µg/mL: all assays above

CCOC(=O)[C@]12CO[C@H](C(C)(C)C)N1C(=O)/C(=C(\C)Nc1ncc(Cl)cn1)C2=O
> 32 µg/mL: all assays above

CCCCCCC/C=C/C(=O)N1C(=O)/C(=C(\C)Nc2ccc(N3CCOCC3)cc2)C(=O)C1CC(C)C (stereo not given)
> 32 µg/mL: all assays above

CCCCCCN/C(=C1/C(=O)CNC1=O)c1ccccc1
> 32 µg/mL: all assays above

O=C1CNC(=O)/C1=C(\NC1CCCCC1)c1cccc2ccccc12
> 32 µg/mL: all assays above

O=C1CNC(=O)/C1=C(\NCc1ccccc1)c1cccc2ccccc12
> 32 µg/mL: all assays above

CCCCCCCCCCCCC/C(Nc1ccccc1)=C1\C(=O)CNC1=O
> 32 µg/mL: all assays above

CCCCCC/C(Nc1ccc(N2CCOCC2)cc1)=C1\C(=O)CNC1=O
> 32 µg/mL: all assays above

CCCCCCCCCCC/C(Nc1ccc(N)cc1)=C1\C(=O)CN(CCCCCC)C1=O
> 32 µg/mL: all assays above

CCCC(=O)N1CC(=O)/C(=C(\CCCCc2ccccc2)NC2CC(C)(C)N(C)C(C)(C)C2)C1=O
> 32 µg/mL: all assays above

CCCCCCC(=O)N1CC(=O)/C(=C(\CCCOc2ccccc2)NCCCOC(C)C)C1=O
> 32 µg/mL: all assays above
